Results: ChEMBL document CHEMBL1201862, “PubChem BioAssay data set” (2004)
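Growth conditions: 96-well plates. Treatment: test compound, 48 hours, 5 concentrations. Analysis: linear interpolation between bracketing concentrations; unreached endpoints set to highest concentration. At the GI50, growth is halved.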 Activity calls are given as the source filed them. No stated cut-off is given here; in the data, active = GI50 up to about 1.1 µM and inactive = higher.

Experiments:
Assay in all cases: NCI tumour cell line growth inhibition, 48 h
UACC-257 = tested on: UACC-257
OVCAR-3 = tested on: OVCAR-3
M14 = tested on: M14
SF-295 = tested on: SF-295
K562 = tested on: K562
SK-MEL-2 = tested on: SK-MEL-2
RXF 393 = tested on: RXF 393
NCI-H522 = tested on: NCI-H522
HT-29 = tested on: HT-29
NCI-H460 = tested on: NCI-H460
HCT-15 = tested on: HCT-15
SNB-75 = tested on: SNB-75
NCI-H23 = tested on: NCI-H23
SN12C = tested on: SN12C
SNB-19 = tested on: SNB-19
OVCAR-8 = tested on: OVCAR-8
DU-145 = tested on: DU-145
SF-268 = tested on: SF-268
Malme-3M = tested on: Malme-3M
T47D = tested on: T47D

Structure (SMILES)	GI50 (UACC-257)	GI50 (OVCAR-3)	GI50 (M14)	GI50 (SF-295)	GI50 (K562)	GI50 (SK-MEL-2)	GI50 (RXF 393)	GI50 (NCI-H522)	GI50 (HT-29)	GI50 (NCI-H460)	GI50 (HCT-15)	GI50 (SNB-75)	GI50 (NCI-H23)	GI50 (SN12C)	GI50 (SNB-19)	GI50 (OVCAR-8)	GI50 (DU-145)	GI50 (SF-268)	GI50 (Malme-3M)	GI50 (T47D)
CCN1C(=O)c2cc(OC)c(OC)cc2C(=O)C12OC(=O)c1cc3c(cc12)OCO3 (stereo not drawn)	> 100 µM (inactive)	63.5 µM (inactive)	97.3 µM (inactive)	68.7 µM (inactive)	> 100 µM (inactive)	20.2 µM (inactive)	25.8 µM (inactive)	> 100 µM (inactive)	87.3 µM (inactive)	43.4 µM (inactive)	> 100 µM	23 µM (inactive)	> 100 µM (inactive)	61.5 µM (inactive)	39.5 µM (inactive)	48 µM (inactive)	31.3 µM (inactive)	69.7 µM (inactive)	> 100 µM (inactive)	–
COC[C@@H](Cc1ccc(OC)c(OC)c1)[C@@H](COC)Cc1ccc(OC)c(OC)c1	> 100 µM (inactive)	> 100 µM (inactive)	> 100 µM (inactive)	> 100 µM (inactive)	> 100 µM (inactive)	> 100 µM (inactive)	> 100 µM (inactive)	64.1 µM (inactive)	> 100 µM (inactive)	> 100 µM (inactive)	> 100 µM	> 100 µM (inactive)	> 100 µM (inactive)	> 100 µM (inactive)	> 100 µM (inactive)	> 100 µM (inactive)	–	> 100 µM (inactive)	> 100 µM (inactive)	–
C=COCCCOc1ccccc1	–	> 100 µM (inactive)	> 100 µM (inactive)	–	> 100 µM (inactive)	> 100 µM (inactive)	> 100 µM (inactive)	> 100 µM (inactive)	> 100 µM (inactive)	> 100 µM (inactive)	> 100 µM	–	> 100 µM (inactive)	> 100 µM (inactive)	> 100 µM (inactive)	> 100 µM (inactive)	–	> 100 µM (inactive)	> 100 µM (inactive)	–
CC(C)(Br)C1(O)CCCN1C(=O)c1ccccc1 (stereo not drawn)	> 100 µM (inactive)	> 100 µM (inactive)	> 100 µM (inactive)	25.1 µM (inactive)	33 µM (inactive)	> 100 µM (inactive)	> 100 µM (inactive)	> 100 µM (inactive)	> 100 µM (inactive)	> 100 µM (inactive)	> 100 µM	97.5 µM (inactive)	> 100 µM (inactive)	> 100 µM (inactive)	> 100 µM (inactive)	> 100 µM (inactive)	–	> 100 µM (inactive)	> 100 µM (inactive)	–
CCP(=O)(CC)C(Cl)(Cl)C(O)C(C)(C)C (stereo not drawn)	> 100 µM (inactive)	> 100 µM (inactive)	> 100 µM (inactive)	> 100 µM (inactive)	> 100 µM (inactive)	> 100 µM (inactive)	–	> 100 µM (inactive)	> 100 µM (inactive)	> 100 µM (inactive)	> 100 µM	> 100 µM (inactive)	> 100 µM (inactive)	> 100 µM (inactive)	> 100 µM (inactive)	> 100 µM (inactive)	> 100 µM (inactive)	–	–	> 100 µM (inactive)
OCc1cn(C(c2ccccc2)(c2ccccc2)c2ccccc2)cn1	> 100 µM (inactive)	> 100 µM (inactive)	> 100 µM (inactive)	32.3 µM (inactive)	> 100 µM (inactive)	> 100 µM (inactive)	–	> 100 µM (inactive)	> 100 µM (inactive)	> 100 µM (inactive)	> 100 µM	22.2 µM (inactive)	> 100 µM (inactive)	> 100 µM (inactive)	> 100 µM (inactive)	> 100 µM (inactive)	> 100 µM (inactive)	–	–	> 100 µM (inactive)
Nc1nnc(CCC(=O)Nc2cc(Cl)ccc2Cl)n1N	> 100 µM (inactive)	> 100 µM (inactive)	> 100 µM (inactive)	> 100 µM (inactive)	> 100 µM (inactive)	> 100 µM (inactive)	> 100 µM (inactive)	> 100 µM (inactive)	> 100 µM (inactive)	> 100 µM (inactive)	> 100 µM	> 100 µM (inactive)	> 100 µM (inactive)	> 100 µM (inactive)	> 100 µM (inactive)	> 100 µM (inactive)	–	> 100 µM (inactive)	> 100 µM (inactive)	–
COc1cccc(C2C(C(=O)O)=C(CO)Oc3cc4c(cc32)OCO4)c1 (stereo not drawn)	–	> 100 µM (inactive)	> 100 µM (inactive)	> 100 µM (inactive)	> 100 µM (inactive)	> 100 µM (inactive)	–	> 100 µM (inactive)	> 100 µM (inactive)	> 100 µM (inactive)	> 100 µM	> 100 µM (inactive)	> 100 µM (inactive)	> 100 µM (inactive)	> 100 µM (inactive)	> 100 µM (inactive)	–	> 100 µM (inactive)	> 100 µM (inactive)	–
